Measurements from ChEMBL document CHEMBL1255371, “Clonal spread of highly beta-lactam-resistant Streptococcus pneumoniae isolates in Taiwan” (2008).
In brackets after ≈: the same amount, converted by molar mass.

Legend:
Assay type in all cases: functional
[1] = test system: Streptococcus pneumoniae; experiment: Antimicrobial activity against beta-lactam resistant Streptococcus pneumoniae clinical isolate by broth dilution method
[2] = test system: Streptococcus pneumoniae; experiment: Antimicrobial activity against Streptococcus pneumoniae in meningitis patients by broth dilution method
[3] = test system: Streptococcus pneumoniae; experiment: Antimicrobial activity against Streptococcus pneumoniae isolated from patient with bacterial infection by broth dilution method
[4] = test system: Streptococcus pneumoniae; experiment: Antimicrobial activity against Streptococcus pneumoniae isolated from non-meningitis patient assessed as percent resistant isolates by CLSI method
[5] = test system: Streptococcus pneumoniae; experiment: Antimicrobial activity against Streptococcus pneumoniae isolated from cerebrospinal fluid of patient with bacterial infection by broth dilution method
[6] = test system: Streptococcus pneumoniae; experiment: Antimicrobial activity against Streptococcus pneumoniae isolated from meningitis patient assessed as percent susceptible isolates by CLSI method
[7] = test system: Streptococcus pneumoniae; experiment: Antimicrobial activity against Streptococcus pneumoniae isolated from meningitis patient assessed as percent resistant isolates by CLSI method
[8] = test system: Streptococcus pneumoniae; experiment: Antimicrobial activity against Streptococcus pneumoniae isolated from non-meningitis patient assessed as percent susceptible isolates by CLSI method
[9] = test system: Streptococcus pneumoniae; experiment: Antimicrobial activity against Streptococcus pneumoniae in non-meningitis patients by broth dilution method

SMILES	MIC50 [1] [µg/mL]	MIC90 [1] [µg/mL]	MIC [2] [µg/mL]	MIC [3] [µg/mL]	Activity [4] [%]	MIC [5] [µg/mL]	Activity [6] [%]	Activity [7] [%]	Activity [8] [%]	MIC [9] [µg/mL]	MIC [1] [µg/mL]
CCCCCCCCCC(=O)N[C@@H](Cc1c[nH]c2ccccc12)C(=O)N[C@H](CC(N)=O)C(=O)N[C@@H](CC(=O)O)C(=O)N[C@@H]1C(=O)NCC(=O)N[C@@H](CCCN)C(=O)N[C@@H](CC(=O)O)C(=O)N[C@H](C)C(=O)N[C@@H](CC(=O)O)C(=O)NCC(=O)N[C@H](CO)C(=O)N[C@@H]([C@H](C)CC(=O)O)C(=O)N[C@@H](CC(=O)c2ccccc2N)C(=O)O[C@@H]1C	0.06 (≈ 0.037 µM)	0.06 (≈ 0.037 µM)									
CO/N=C(\C(=O)N[C@@H]1C(=O)N2C(C(=O)O)=C(COC(C)=O)CS[C@H]12)c1csc(N)n1 [CEFOTAXIME]	0.5 (≈ 1.1 µM)	1 (≈ 2.2 µM)	1 (≈ 2.2 µM)	≥ 2	1.4	1 (≈ 2.2 µM)	58.5	6.9	93.1	< 2	
Nc1nc(/C(=N/O)C(=O)N[C@@H]2C(=O)N3C(C(=O)O)=C(/C=C4\CCN([C@@H]5CCNC5)C4=O)CS[C@H]23)ns1 [CEFTOBIPROLE]	0.25 (≈ 0.468 µM)	0.5 (≈ 0.935 µM)									
CC[C@H]1OC(=O)[C@H](C)[C@@H](O[C@H]2C[C@@](C)(OC)[C@@H](O)[C@H](C)O2)[C@H](C)[C@@H](O[C@@H]2O[C@H](C)C[C@H](N(C)C)[C@H]2O)[C@](C)(O)C[C@@H](C)C(=O)[C@H](C)[C@@H](O)[C@]1(C)O [ERYTHROMYCIN]	> 32	> 32					6.9	90.9			
CO/N=C1\CN(c2nc3c(cc2F)c(=O)c(C(=O)O)cn3C2CC2)CC1CN (stereo unspecified) [GEMIFLOXACIN]	≤ 0.03	≤ 0.03					98.9	1.1			≤ 0.03
C[C@H]1COc2c(N3CCN(C)CC3)c(F)cc3c(=O)c(C(=O)O)cn1c23.C[C@H]1COc2c(N3CCN(C)CC3)c(F)cc3c(=O)c(C(=O)O)cn1c23.O [LEVOFLOXACIN]	1	1					98.1	1.9			
CC1(C)S[C@@H]2[C@H](NC(=O)Cc3ccccc3)C(=O)N2[C@H]1C(=O)O [PENICILLIN G]	1 (≈ 2.99 µM)	2 (≈ 5.98 µM)	≥ 0.1	≥ 0.1			16.8	44.5		≥ 4	
CN(C)c1cc(NC(=O)CNC(C)(C)C)c(O)c2c1C[C@H]1C[C@H]3[C@H](N(C)C)C(O)=C(C(N)=O)C(=O)[C@@]3(O)C(O)=C1C2=O [TIGECYCLINE]	≤ 0.015	0.03 (≈ 0.0512 µM)									≤ 0.015
CN[C@H](CC(C)C)C(=O)N[C@H]1C(=O)N[C@@H](CC(N)=O)C(=O)N[C@H]2C(=O)N[C@H]3C(=O)N[C@H](C(=O)N[C@H](C(=O)O)c4cc(O)cc(O)c4-c4cc3ccc4O)[C@H](O)c3ccc(c(Cl)c3)Oc3cc2cc(c3O[C@@H]2O[C@H](CO)[C@@H](O)[C@H](O)[C@H]2O[C@H]2C[C@](C)(N)[C@H](O)[C@H](C)O2)Oc2ccc(cc2Cl)[C@H]1O [VANCOMYCIN]	0.25 (≈ 0.173 µM)	0.5 (≈ 0.345 µM)					100	0			
